# Where a SMILES comes first, the peptide text is derived from it.
# Assays:
# [1] = tested on: Stratum Corneum Tryptic Enzyme (SCTE); details: reported rosacea study; cited from earlier work
# [2] = FUTHAN compared with aprotinin and AEBSF; cited from earlier work
# [3] = molecular target: KLK7/SCCE (Homo sapiens, UniProt P49862); assay: enzyme inhibition KLK7/SCCE; assay type: biochemical; details: approximate; read-out: IC50 (50% inhibition) KLK7/SCCE
# From the text: (§1) It is understood that aspartame, FUTHAN, and combinations thereof may be utilized.
# [4] = molecular target: pancreatic kallikrein (Homo sapiens, UniProt P06870); assay: enzyme inhibition pancreatic kallikrein; assay type: biochemical; details: approximate; read-out: IC50 (50% inhibition) pancreatic kallikrein
# Chain of pancreatic kallikrein (P06870 25-262): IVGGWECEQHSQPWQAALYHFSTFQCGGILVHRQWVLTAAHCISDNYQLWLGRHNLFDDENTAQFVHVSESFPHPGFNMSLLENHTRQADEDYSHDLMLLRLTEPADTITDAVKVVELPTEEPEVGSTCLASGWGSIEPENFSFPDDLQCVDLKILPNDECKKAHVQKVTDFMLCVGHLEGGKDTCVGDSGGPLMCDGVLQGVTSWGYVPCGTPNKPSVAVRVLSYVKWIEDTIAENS
# From the text: Enzyme inhibition data was collected for KLK5/SCTE, KLK7/SCCE7, pancreatic kallikrein and trypsin (control).
# [5] = molecular target: T1, KLK5/SCTE (Homo sapiens, UniProt Q9Y337); assay: enzyme inhibition KLK5/SCTE; assay type: biochemical; details: approximate; read-out: IC50 (50% inhibition) KLK5/SCTE
# T1 sequence (Q9Y337 23-293): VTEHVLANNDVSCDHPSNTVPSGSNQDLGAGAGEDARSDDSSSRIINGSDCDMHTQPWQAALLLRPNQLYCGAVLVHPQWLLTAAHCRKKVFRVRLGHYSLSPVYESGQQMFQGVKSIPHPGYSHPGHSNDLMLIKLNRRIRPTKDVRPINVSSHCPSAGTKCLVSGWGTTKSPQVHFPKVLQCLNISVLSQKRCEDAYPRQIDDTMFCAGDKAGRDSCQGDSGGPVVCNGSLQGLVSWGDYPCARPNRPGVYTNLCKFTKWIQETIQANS
# From the text: as §1
# [6] = tested on: various serine proteases; assay: inhibition of various serine proteases compared with known inhibitors; assay type: biochemical; details: FIG. 3
# [7] = molecular target: chymotrypsin (Bos taurus, UniProt P00766); details: literature (Niinobe et al., Fujii et al.); cited from earlier work
# [8] = tested on: total protease activity in skin extracts; assay: inhibition of total protease activity in skin extracts; assay type: biochemical, human; details: skin extracts from three individuals; FIG. 2
# [9] = tested on: SRT-ORT mouse model; assay: SRT-ORT osteoarthritis mouse model, aspartame chow, X-ray analyses; assay type: in vivo; details: chow containing 4 mg Aspartame/g, 12-18 months, vs non-supplemented chow
# From the text: It has been reported that isotopically labeled Aspartame/Asp-Phe distributes to various tissues including the bones (See Aspartame Physiology and Biochemistry, Ed. Stegink, Lewis, D. and Filner, L. J. (1984), Marcel Decker, NY, Chapter 8, “Tissue Distribution of Orally Administered Isotopically Labeled Aspartame in Rat.” By Matsuzawa, Y., O'Hara, Y., pp. 161-199.). It is well established that the ester group on aspartame is labile to both acid hydrolysis, as exists in the stomach, and to enzyme esterases that are common to all body fluids and tissues. […] It is contemplated that this mechanism will enhance the transfer of essential minerals from the digestive system to the blood, tissues, and cells. Further evidence that aspartame (Asp-Phe) ingestion contributes to muscle (tissue) density and bone density enhancement comes from mouse studies. The SRT-ORT mouse model is a genetically deficient mouse strain obtained from NIH with a natural history of developing osteoarthritis. Blinded experiments were conducted with littermates divided into two groups, one fed chow containing 4 mg Aspartame/g. and the other fed non-supplemented chow over a period of 12-18 months. X-ray analyses were performed on the cortex and marrow spaces of the right and left femurs, as well as the quadriceps in the femoris area and joint calcification. […] The increase in calcification in the treated animal cohort at the injured joints gave a P value <0.0001. An unexpected increase in quadriceps muscle mass index for the treated animals gave a P value of 0.0185. These analyses were preformed on an n value of 23 animals in the treated set and 18 animals in the controls. Therefore, it is contemplated that animals fed aspartame over an extended time period have increased bone density and muscle mass indicating increased or enhanced calcium, and perhaps other minerals, bioavailability and utility.
# [10] = chronic anemia patients using fruit flavored drink with aspartame; assay type: in vivo, human; details: fruit flavored drink combination with aspartame
# From the text: The current invention may utilize a pharmaceutically effective amount of aspartame or Asp-Phe for the treatment of sickle cell anemia and or chronic anemia in general. […] It is also contemplated that the current invention may be utilized as a food supplement product with beneficial attributes to chronic anemia patients which may include most cancer patients under treatment.
# [11] = pigs fed aspartame over a two month period: bleeding time and platelet count; assay type: in vivo; details: pigs fed 75-300 mg aspartame/100 weight/day over a two month period
# From the text: Recent chemical evidence has documented the mechanism of the analgesia and blood thinning properties of ASP as attributable in part to the compound's ability to inhibit the cyclo-oxygenase enzymes known as COX-1 and COX-2. […] It is contemplated that a preferred embodiment may use a coated tablet or pill that may prevent or reduce hydrolysis of the aspartame ester group in the acidic conditions of the stomach.
# [12] = molecular target: T2, COX-2 (Homo sapiens, UniProt P35354); assay: COX-2 enzyme inhibition
# T2 sequence (P35354 18-604): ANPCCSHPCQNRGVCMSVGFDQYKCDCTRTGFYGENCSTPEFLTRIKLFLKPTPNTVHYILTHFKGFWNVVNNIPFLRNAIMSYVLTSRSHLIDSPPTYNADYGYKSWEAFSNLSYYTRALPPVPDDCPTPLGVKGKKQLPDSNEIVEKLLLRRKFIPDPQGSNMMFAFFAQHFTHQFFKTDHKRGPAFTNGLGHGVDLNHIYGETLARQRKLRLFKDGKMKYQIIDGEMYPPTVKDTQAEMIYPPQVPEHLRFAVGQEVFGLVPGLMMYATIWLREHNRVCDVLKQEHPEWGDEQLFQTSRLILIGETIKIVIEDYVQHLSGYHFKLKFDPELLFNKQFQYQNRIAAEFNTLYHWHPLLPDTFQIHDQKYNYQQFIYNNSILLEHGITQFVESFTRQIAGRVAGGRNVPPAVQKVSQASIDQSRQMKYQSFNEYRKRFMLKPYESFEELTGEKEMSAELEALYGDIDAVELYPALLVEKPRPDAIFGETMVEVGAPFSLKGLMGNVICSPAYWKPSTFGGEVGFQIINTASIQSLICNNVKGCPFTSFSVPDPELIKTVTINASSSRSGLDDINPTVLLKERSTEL
# [13] = aspartame lotion on acetic acid burn; assay type: in vivo, human; details: lotion application; burn from acetic acid spilled on an individual's leg
# From the text: It is also contemplated that the current invention may also help the redness of the skin and/or promote healing for the same injury.
# [14] = bone density in human subjects ingesting aspartame (bone scans, dental records); details: subject
# [15] = molecular target: COX-1 (Homo sapiens, UniProt P23219); assay: COX-1 enzyme inhibition
# Chain of COX-1 (P23219 24-599): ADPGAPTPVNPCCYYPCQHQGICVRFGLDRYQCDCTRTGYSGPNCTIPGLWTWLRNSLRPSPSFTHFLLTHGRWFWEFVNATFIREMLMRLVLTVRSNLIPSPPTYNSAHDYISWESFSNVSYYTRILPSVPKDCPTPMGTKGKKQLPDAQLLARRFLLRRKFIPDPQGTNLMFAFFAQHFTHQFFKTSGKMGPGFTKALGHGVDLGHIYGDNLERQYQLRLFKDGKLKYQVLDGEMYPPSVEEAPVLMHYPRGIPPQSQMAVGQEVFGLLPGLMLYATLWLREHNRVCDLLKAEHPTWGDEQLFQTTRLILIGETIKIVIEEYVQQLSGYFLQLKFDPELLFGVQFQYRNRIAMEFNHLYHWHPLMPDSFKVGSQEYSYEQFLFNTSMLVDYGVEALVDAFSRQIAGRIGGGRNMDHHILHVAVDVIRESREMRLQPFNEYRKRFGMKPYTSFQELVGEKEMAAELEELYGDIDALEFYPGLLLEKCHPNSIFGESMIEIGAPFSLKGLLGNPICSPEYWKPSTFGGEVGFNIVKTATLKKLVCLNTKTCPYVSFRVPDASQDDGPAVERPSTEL
# [16] = in excess of 300 mg/day for several years
# Chain of KLK7/SCCE (P49862 30-253): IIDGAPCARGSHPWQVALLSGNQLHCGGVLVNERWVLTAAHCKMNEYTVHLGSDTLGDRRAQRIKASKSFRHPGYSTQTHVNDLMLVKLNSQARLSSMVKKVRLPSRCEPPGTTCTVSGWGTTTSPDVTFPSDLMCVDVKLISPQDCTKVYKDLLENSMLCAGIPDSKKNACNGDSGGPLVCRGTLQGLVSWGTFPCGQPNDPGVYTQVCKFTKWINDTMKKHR
compound,measurement,setting,value
"NCCc1ccc(S(=O)(=O)F)cc1 [AEBSF, 4-(2-aminoethyl)-benzenesulfonyl fluoride]",inhibition of SCTE,[1],effective in inhibiting this enzyme
same,toxicity / side effects,[2],known serious side effects
"CS(=O)(=O)O.CS(=O)(=O)O.N=C(N)Nc1ccc(C(=O)Oc2ccc3cc(C(=N)N)ccc3c2)cc1 [FUTHAN, 6-amidino-2-naphthyl p-guanidinobenzoate dimethanesulfonate]",IC50,[3],~80 µM
same,IC50,[4],~20 µM
same,IC50,[5],~2 µM
same,inhibitor strength compared with aprotinin and AEBSF,[6],weaker
same,inhibition of chymotrypsin or enzymes with chymotrypsin specificity,[7],not chymotrypsin
same,inhibition of total protease activity in skin extracts,[8],efficacy of the inhibitor
"COC(=O)[C@H](Cc1ccccc1)NC(=O)[C@@H](N)CC(=O)O [aspartame, N-L-alpha-aspartyl-L-phenylalanine 1-methyl ester] (H-Asp-Phe-OMe)",calcification at the injured joints,[9]; P value <0.0001,increase
same,cortical bone density,[9]; P value of 0.0058,increase
same,quadriceps muscle mass index,[9]; P value of 0.0185,increase
same,energy and muscle pain in chronic anemia patients,[10],more energy and less muscle pain
same,bleeding times,[11],significantly increased
same,platelet counts,[11],elevated
same,IC50,[12],< 1 µM
same,pain associated with a burn,[13],relieved the pain
same,bone density from dental records,[14]; 150-300 mg/day over several years,bone density increase
same,"density of the right and left femur, mean",[14]; [16],1.2 g/cm2
same,femur density relative to the density of a young adult,[14]; [16],122%
same,lumbar spine bone density (L1-L4),[14]; [16],1.74 g/cm2
same,lumbar spine bone density relative to the density of a young adult,[14]; [16],148%
same,IC50,[15],< 1 µM
Aprotinin,inhibition of SCTE,[1],effective in inhibiting this enzyme
same,toxicity / side effects,[2],known serious side effects

# — patent US20090036528A1 (priority 2007, published 2009)
